Where two headings read alike, the source gives them in different places.
What was measured:
[1] = tested on: T. mentagrophytes, T. rubrum and C. albicans; test: Drug resistance development in vitro by serial passage of fungal cultures; assay type: cell-based; conditions: serial passage in the presence of sub-growth inhibitory concentrations
From the text: Efinaconazole drug resistance development was studied in vitro against T. mentagrophytes, T. rubrum and C. albicans. […] The clinical significance of these in vitro results is unknown.

bacterial = test: Bacterial reverse mutation assay; assay type: cell-based
[2] = mouse, in vivo
CHL cell = assay type: cell-based
[3] = parameters: species or system rats; conditions: rat, in vivo, sc
[4] = Pharmacokinetic study in healthy volunteers, topical application to all 10 toenails; assay type: in vivo, human; conditions: for Cmax: mean +/- SD; for AUC(0-t): read-out: AUC24h
Method: In […] patients, efinaconazole 10% solution (IDP-108) was applied topically to all 10 toenails (0.42 mL total daily dose volume) administered as single and then 7 daily doses to 10 healthy volunteers, and once daily for 28 days to 18 severe onychomycosis patients. The efinaconazole 10% solution (0.42 mL/subject) was applied topically in the morning, unoccluded (i.e., without occluding, blocking or covering the nail with, for example, adhesive tape, bandage, dressing, sealant, etc.), by a trained nurse or study technician to all 10 toenails as a single dose (day 1), and seven consecutive daily doses (day 4 through day 10). A volume of 90 μL was applied on each great toenail and 30 μL on each of the remaining 8 toenails. There were no study drug applications on days 2 and 3.
Blood samples were collected at pre-dose, and 1, 2, 4, 6, 8, 10, 12, 16, 24, 28, 32, 36, 48, and 72 hours after dosing on days 1 and 10; and at pre-dose on days 6 and 8. Blood was processed to plasma and stored frozen until analysis.
(§1) Plasma concentrations of efinaconazole and its major metabolite H3 were determined by LC-MS-MS at multiple timepoints. Plasma concentrations of efinaconazole and H3 were determined using a validated LC-MS-MS method. […] The concentration of efinaconazole in plasma was determined at multiple time points over the course of 24-hour periods on days 1, 14, and 28. Plasma concentrations below the lower limit were set to zero for PK analyses. Pharmacokinetic parameters were calculated from individual plasma concentrations, whenever possible, using noncompartmental analysis in WinNonlin (Pharsight, Sunnyvale, Calif., USA), and included Cmax (observed peak drug concentration), Tmax (time at which Cmax occurs), Cmin (observed minimum drug concentration), t1/2 (apparent half-life), and AUC (area under the concentration-time curve).

[5] = Pharmacokinetic study in severe onychomycosis patients, once daily for 28 days; assay type: in vivo, human; conditions: for AUC(0-t): read-out: AUC24h; for Cmax: mean +/- SD
Method: Systemic absorption of efinaconazole in 18 […] patients with severe onychomycosis was determined after application of IDP-108 (10% efinaconazole) once daily for 28 days to patients' 10 toenails and adjacent skin. Specifically, two single-center, open-label studies in healthy volunteers and severe onychomycosis patients.
A separate single-center, open-label study to evaluate safety and PK of efinaconazole and its H3 metabolite in 20 patients with severe toenail onychomycosis also was conducted. The study enrolled men and women 18-70 years of age who had clinical diagnoses of stable or exacerbating severe DLSO affecting ≥80% of the area of both great toenails. The great toenails had evidence of toenail growth, and at least four toenails other than the great toenails were also affected by onychomycosis. A positive microscopic examination with potassium hydroxide (KOH) for the hyphae associated with dermatophytes was obtained for at least one great toenail at the screening visit.
Efinaconazole 10% solution (0.42 mL/subject) was applied topically, unoccluded, once daily in the morning for 28 days to all 10 toenails by a trained nurse or study technician, including to the toenail folds, toenail bed, hyponychium, and approximately 0.5 cm of skin around the toenail in all directions to ensure they were completely covered.
Blood samples were collected at predose and at 1, 2, 4, 6, 8, 10, 12, 16, and 24 hours postdose on days 1, 14, and 28. Blood was processed to plasma and stored frozen until analysis.
as §1

CYP2C9 = CYP2C9 (Homo sapiens, UniProt P11712); test: biochemical; assay type: in vitro ADME
Chain of CYP2C9 (P11712 whole entry): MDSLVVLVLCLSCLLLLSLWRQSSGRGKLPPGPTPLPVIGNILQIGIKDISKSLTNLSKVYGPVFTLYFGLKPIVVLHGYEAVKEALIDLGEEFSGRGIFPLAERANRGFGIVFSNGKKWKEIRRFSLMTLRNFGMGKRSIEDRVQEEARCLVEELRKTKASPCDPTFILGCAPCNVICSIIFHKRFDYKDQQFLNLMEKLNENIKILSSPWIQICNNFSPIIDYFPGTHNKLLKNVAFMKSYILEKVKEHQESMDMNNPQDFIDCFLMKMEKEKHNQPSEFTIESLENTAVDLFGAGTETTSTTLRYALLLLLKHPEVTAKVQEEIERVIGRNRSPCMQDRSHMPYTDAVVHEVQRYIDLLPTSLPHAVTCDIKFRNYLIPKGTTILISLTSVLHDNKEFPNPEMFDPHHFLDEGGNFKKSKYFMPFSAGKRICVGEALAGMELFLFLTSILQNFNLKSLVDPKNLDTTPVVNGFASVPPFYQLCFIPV
From the text: The 2006 Food and Drug Administration Drug Interaction Studies—Study Design, Data Analysis, and Implications for Dosing and Labeling draft guidance recommends clinical evaluation for drugs that are CYP inhibitors if the mean steady state Cmax/Ki is greater than 0.1.

C=C1CCN([C@H](C)[C@](O)(Cn2cncn2)c2ccc(F)cc2F)CC1 [efinaconazole, (2R,3R)-2-(2,4-difluorophenyl)-3-(4-methylenepiperidin-1-yl)-1-(1H-1,2,4-triazol-1-yl) butan-2-ol]
increase of the MIC [1]: up to 4 fold
mutagenicity (bacterial): not mutagenic
clastogenicity [2]: not clastogenic
clastogenicity (CHL cell): not clastogenic
effect on estrous cycle in females ([3]; 5 mg/kg/day): did not have effects
effect on estrous cycle in females ([3]; 25 mg/kg/day): delayed the estrous cycle
steady-state reached on Day ([4]; fifth topical application, both toenails and back skin): 8 days
Systemic exposure (AUC24h) on day 10 relative to day 1 ([4]; healthy volunteers): approximately 3.6 fold
Cmax ([4]; healthy volunteers, Day 1 (single dose), plasma): 0.38 ± 0.39 ng/mL
Cmax ([4]; healthy volunteers, Day 10 (7th daily dose), plasma): 0.54 ± 0.22 ng/mL
Cmin ([4]; healthy volunteers, Day 10, mean +/- SD): 0.47 ± 0.18 ng/mL
average plasma concentration ([4]; healthy volunteers, stated after the day 10 range): 0.37 ng/mL
Cmax ([4]; human, plasma, topical, 0.42 mL/subject, healthy volunteers, Day 1 (single dose), plasma, read-out: Cmax): 0.382 ng/mL
AUC(0-t) ([4]; human, plasma, topical, 0.42 mL/subject, healthy volunteers, Day 1, mean +/- SD): 2.64 ± 2.85 ng·h/mL
Tmax ([4]; human, plasma, topical, 0.42 mL/subject, healthy volunteers, Day 1, value [range]): 24 h
Cmax ([4]; human, plasma, topical, 0.42 mL/subject, healthy volunteers, Day 10 (7th daily dose), plasma, read-out: Cmax): 0.542 ng/mL
AUC(0-t) ([4]; human, plasma, topical, 0.42 mL/subject, healthy volunteers, Day 10, mean +/- SD): 9.48 ± 3.86 ng·h/mL
Tmax ([4]; human, plasma, topical, 0.42 mL/subject, healthy volunteers, Day 10, value [range]): 10 h
concentration at 1 day ([4]; human, plasma, topical, 0.42 mL/subject, healthy volunteers, day 1, read-out: plasma concentration range): 0 to 1.11 ng/mL
concentration at 10 day ([4]; human, plasma, topical, 0.42 mL/subject, healthy volunteers, day 10, read-out: plasma concentration range): 0.25 to 0.85 ng/mL
tolerability, drug-related adverse events ([5]; both PK studies (healthy volunteers and onychomycosis patients)): well tolerated
Tmax ([5]; both sexes, human, plasma, topical, 0.42 mL/subject, onychomycosis patients, Day 1): 23.9 h
AUC(0-t) ([5]; both sexes, human, plasma, topical, 0.42 mL/subject, onychomycosis patients, Day 1, mean +/- SD): 1.79 ng·h/mL
Cmax ([5]; both sexes, human, plasma, topical, 0.42 mL/subject, onychomycosis patients, Day 1, plasma): 0.23 ± 0.18 ng/mL
Tmax ([5]; both sexes, human, plasma, topical, 0.42 mL/subject, onychomycosis patients, Day 14): 4.55 h
AUC(0-t) ([5]; both sexes, human, plasma, topical, 0.42 mL/subject, onychomycosis patients, Day 14, mean +/- SD): 10.9 ± 5.9 ng·h/mL
Cmax ([5]; both sexes, human, plasma, topical, 0.42 mL/subject, onychomycosis patients, Day 14, plasma): 0.62 ± 0.23 ng/mL
Tmax ([5]; both sexes, human, plasma, topical, 0.42 mL/subject, onychomycosis patients, Day 28): 16 h
AUC(0-t) ([5]; both sexes, human, plasma, topical, 0.42 mL/subject, onychomycosis patients, Day 28, mean +/- SD): 12.2 ng·h/mL
Cmax ([5]; both sexes, human, plasma, topical, 0.42 mL/subject, onychomycosis patients, Day 28, plasma): 0.67 ng/mL
concentration at 2 weeks after the last dose ([5]; both sexes, human, plasma, topical, 0.42 mL/subject, onychomycosis patients, detected in several subjects, read-out: mean plasma concentrations two weeks after the last dose): 0.07 ng/mL
Cmin ([5]; onychomycosis patients, Day 14, mean +/- SD): 0.33 ± 0.17 ng/mL
Cmin ([5]; onychomycosis patients, Day 28, mean +/- SD): 0.36 ± 0.20 ng/mL
Ki (CYP2C9): 0.261 µM
steady state Cmax/Ki (CYP2C9): 0.007
